For 89 molecules, melting point results are on record in a melting point compilation (Tetko et al.; mined from patent text by program, amines drawn as free bases though some values may be those of a salt).

What is called melting point is the temperature, or range, at which the solid turns liquid. As to `COC(=O)Cc1cccc(OC)c1OCCCc1cc(O)nn1Cc1ccc(Cl)cc1Cl`, the melting point was in the range of 110 to 111 °C. The value for `NC(=O)c1c(Br)cc(Br)c(CC(=O)O)c1Br` was 245 °C; that for `COc1cc(C)ccc1-c1nc(C)c(-c2cccnc2)n1O` was 75 to 80 °C; that for `NS(=O)(=O)c1cc2cc(C=O)sc2o1` was 165 to 167 °C. The value for `Cc1c(CO)ncnc1N1CCCCC1` was 79 to 81 °C; that for `O=C1c2ccccc2C(=O)N1CCCCc1nccc(NC(=S)NCC(F)(F)F)n1` was 204 to 205 °C; that for `CC1(CCn2c(=O)oc3ccccc32)Cn2cc([N+](=O)[O-])nc2O1` (centres undefined) was 193 to 195 °C. The value for `Cc1cc(-c2cc(C(F)(F)F)n3ncc(C(=O)Nc4cccc(S(=O)(=O)N5CCN(C)CC5)c4)c3n2)ccc1C(F)(F)F` was 199 °C.

For the molecule `COc1cc(Nc2c(C#N)cnc3cc(C#Cc4ccccn4)sc23)c(Cl)cc1Cl`, the melting point lay within 237 to 239 °C.

On to `N#CC(C#N)=C1N(CCN2CCCCC2)c2ccccc2N1CCN1CCCCC1`, for which the melting point lay within 127 to 128 °C. The value for `Cc1c(-c2ccnc(-c3ccc4c(n3)CCCC4)n2)ccc2ccccc12` was 156 to 158 °C; that for `FC(F)(F)c1cccc(C(Cl)=Nc2nc(C(F)(F)F)c(I)s2)c1` was 136 to 137 °C. The value for `CCCCN(CCCC)c1ccc(C=CC=CC=CC2=C(C#N)C(=C(C#N)C#N)OC2(C)C(F)(F)F)c(OC)c1` (centres undefined) was 168 to 172 °C. On to `CCOC(=O)c1cc(Cl)ccc1N`, for which the melting point was determined as 80 °C. `CC1(C)CCCC(C)(C)N1Cc1ccc2cc(NC(=O)c3ccc(-c4ccccc4)cc3)ccc2n1` yielded a melting point of 200 to 201 °C. The value for `O=C(NCCCc1ccccc1)c1ccccc1NCc1ccncc1` was 117 °C. With `O=C1CCN(c2ccc(CNC(=O)c3cccnc3Oc3ccc(F)cc3)cc2)CC1`, the melting point is 138 to 139 °C.

The molecule `CCOC(=O)/C=C/c1cc(OCc2ccc(OCc3nc(-c4ccco4)oc3C)c(OC)c2)nn1-c1ccccc1` came in with a melting point of 127 to 128 °C. For `COc1ccc2[nH]c(C=Cc3ccc(OC)c(OC)c3)nc2c1`, the melting point lay in the range of 246 to 249 °C.

`CN1CCN(CC(=O)Nc2cccc3c2C(=O)c2c-3n[nH]c2-c2ccc(N(C)C)cc2)CC1` came in with a melting point of more than 300 °C.

On to `COCc1[nH]c(=O)c(C#N)c2c1CC(C)CC2` (centres undefined), for which the melting point lay within 205 to 208 °C. The value for `OCc1ncc(-c2cccs2)s1` was 67 to 68 °C; that for `Cc1nc(COC(=O)c2cccnc2C#N)cs1` was 93 °C; that for `CC(OC(=O)c1ccc(C(=O)O)cc1)c1ccc2c(c1)C(C)(C)CCC2(C)C` (single isomer, unassigned; (-)) was 138 °C. The value for `CC(=O)N1C(=O)c2cccnc2N(C2CC2)c2nc(Cl)cc(C)c21` was 204 to 206 °C. The value for `CC=CC(Oc1nc(OC)cc(OC)n1)C(C)(C)C#N` (centres undefined) was 91 to 92 °C; that for `CC(Cl)CNc1cccc(C(N)=O)c1` (centres undefined) was 193 to 194 °C. `CC1(C)N=C(c2ccc(N)cc2)CC1c1ccncc1` (centres undefined): the melting point was 175 to 178 °C. Molecule `CC(C)(O)CC(N)C1(c2ccc(Cl)cc2)CCC1` (centres undefined) gave a melting point of 60 to 62 °C. The value for `COc1cccc(S(=O)c2cccc(N)c2C#N)c1` (centres undefined) was 110 to 114 °C. In the case of `O=C1N[C@@H](Cc2ccccc2)C(c2ccccc2)(c2ccccc2)O1`, the melting point fell in the range of 259 to 261 °C. The value for `COCCOc1cc2ncnc(Nc3ccc(C)c(OC(C)=O)c3)c2cc1OC` was 180 to 183 °C. The value for `O=C1Nc2ccc([N+](=O)[O-])cc2/C1=C(/Nc1ccc(CN2CCCC2)cc1)c1ccccc1` was 45 to 50 °C; that for `CC(C)OC(=O)Nc1cccc(-c2ccnc3c(C(=O)c4ccccc4)cnn23)c1` was 116 to 118 °C; that for `Cc1cc2c(-c3ccccc3F)c(C(=O)O)oc(=O)c2cc1C` was 214 to 217 °C. The value for `CC(Cl)(Cl)C(=O)NC(=O)C(N)=O` was 110 °C; that for `CCCNC(=O)Nc1ccc2c(c1)NC(=O)C2(C)C` was 223 to 225 °C.

For `CNC(=O)C1Cc2c(n(C)c3ccc(OC)cc23)C1` (centres undefined), the melting point fell in the range of 164 to 165 °C. The value for `O=C(CCc1ccc(CNCc2ccccc2)cc1)Nc1ccc(-c2ccc(Cl)cc2)cc1` was 176 °C; that for `CC(=O)CN1CCc2c(c(=O)oc3ccccc23)C1` was 128 to 130 °C. For `COc1ccc(S(=O)(=O)n2ccc3cccc(-c4ccc(C#N)cc4)c32)cc1`, the melting point lay in the range of 164 to 166 °C.

`CCCCCCCCCCCCCCCCCCOCC(O)Cn1cc(F)c(N)nc1=O` (centres undefined): the melting point lay within 118 to 119 °C. Regarding `O=C(c1ccccc1SSc1ccccc1C(=O)N1CCSCC1)N1CCSCC1`, the melting point was 90 to 92 °C. `CCc1oc2ccccc2c1C(=O)c1ccc(OCCOS(=O)(=O)c2ccc(C)cc2)cc1` gave a melting point of 95 to 98 °C. The value for `CN1C(=O)CC2(CC(=O)N(Cc3ccccc3)C2)C1=O` (centres undefined) was 157 to 158 °C. The value for `C#Cc1ccc(-c2ccccc2F)cc1` was 28.5 to 31 °C.

As to `CC(=O)N(C)N(C(=O)OC(C)(C)C)c1ccc(CC#N)cc1`, the melting point lay in the range of 74 to 75 °C. The value for `CC(C)(C)OC(=O)N1CC(O)C(N2CCC(Cc3ccc(Cl)cc3)CC2)C1` (centres undefined) was 99 to 102 °C; that for `N#Cc1ccc(-c2cc(Oc3cccc4ccc(N)nc34)ncn2)cc1` was 234 to 236 °C.

In turn, `NC(CO)c1ccc(OC(F)F)cc1` (centres undefined) displayed a melting point of 54 to 57 °C. Consider `O=C(Nc1ccc(-n2nc(C(F)(F)F)cc2C(F)(F)F)nc1)c1cc(F)c(F)cc1Cl`, for which the melting point was 113 to 116 °C. The value for `COC(=O)CC(NCCCN(C)C)C(=O)O` (centres undefined) was 171 to 172 °C; that for `Fc1ccc(-c2nnc(Cl)cc2Cl)cc1` was 124 to 127 °C; that for `O=C(O)c1ccc(NC(=O)C(c2ccc(Cl)cc2)c2ccc(Cl)cc2)cc1` was 272 to 274 °C. The value for `Cc1c(Cl)cccc1NC(=O)Nc1ccc(-n2nc(C(F)(F)F)cc2C(F)(F)F)cc1` was 193 to 196 °C; that for `CCc1ccc(C(=O)Oc2ccc(C(=O)O)cc2)cc1C12CC3CC(CC(C3)C1)C2` was 239 to 241 °C. The value for `COC(=O)c1ccc2ccc(OC(=S)N(C)C)cc2c1` was 124 to 126 °C; that for `Cc1ccc2c(c1)C(O)(C1=CCN(C)CC1)CC2c1ccc(F)cc1` (centres undefined) was 176 to 178 °C; that for `Cc1cc(CCCCCCCOc2ccc(C3=NCCO3)cc2)on1` was 89 to 90 °C. Consider `CC(=O)CSc1nc2ccccc2cc1-c1ccc(F)cc1`, for which the melting point lay in the range of 95 to 96 °C. The value for `CS(=O)(=O)c1nccn1CC(=O)Cl` was 132 to 133 °C; that for `CC(=O)SCCCC1(C)C(=O)N2CCCC(C(=O)O)N2C1=O` (centres undefined) was 160 to 161 °C; that for `CC(C)(O)Cn1c(CO)nc2c(N)nc3cc(-c4cccc(CO)c4)cnc3c21` was 227 to 229 °C.

On to `COC(=O)C1CCC2C3CCC4CC(=O)CCC4(C)C3C(NC3CCCC3)CC12C` (centres undefined), for which the melting point fell in the range of 156 to 158 °C. `CCCn1cc2c(C3C(=O)Nc4ccc(S(=O)(=O)N(C)C)cc43)nc(NCCN(C)C)nc2n1` (centres undefined) had a melting point of 259 to 263 °C.

Turning to `COc1cccc(C2OCC(C)(C)C2(O)C(C)(C)C)c1` (centres undefined), the melting point fell in the range of 83 to 83.5 °C.

`O=C1Nc2ccccc2CCC1NC(CCc1ccccc1)C(=O)OCc1ccccc1` (centres undefined) had a melting point of 139 to 141 °C. In the case of `Oc1cc2c(cc1CCc1cccs1)OCC2`, the melting point was 79 to 85 °C.

In turn, `CC(C)n1nc(-c2sc(C(N)=O)nc2-c2ccc(F)cc2)ccc1=O` returned a melting point of 226 to 228 °C. `N#Cc1ccc(OCc2ccc3c(c2)OCO3)cc1OC(C(=O)O)c1ccccc1` (racemic): the melting point was 68 to 70 °C. The value for `N#Cc1ccc(Cc2nc3ccccc3[nH]2)cc1` was 133 to 136 °C; that for `NC(=O)c1cc(NCc2ccccc2Cl)c([N+](=O)[O-])cc1[N+](=O)[O-]` was 158 to 161 °C; that for `CCCCC(CC)C(=O)NC(=S)Nc1nc(-c2ccc3c(c2)CCCC3)cs1` (centres undefined) was 178 to 179 °C. The value for `Cc1c(OCC(F)(F)C(F)F)ccnc1CO` was 67 to 68 °C.

Molecule `O=C(N1CCC(n2ccc3ccccc32)CC1)C(F)(F)F` came in with a melting point of 130 to 132 °C.

Molecule `CCC1(CC(=O)O)OCCc2c1[nH]c1ccc(OCc3ccccc3)cc21` (centres undefined) gave a melting point of 163 to 165 °C.

Regarding `COC(=O)C(O)(c1cccc(C(F)(F)F)c1)c1cccc(C(F)(F)F)c1`, the melting point was 69 to 70 °C. The value for `Cc1cc(=O)n(C)c2ccc(C3=NNC(=O)CC3CO)cc12` (centres undefined) was 222 to 223 °C. The value for `CN(C)C1CCN(Cc2ccc(COc3cccc4c3CN(C3CCC(=O)NC3=O)C4=O)cc2)CC1` (centres undefined) was 209 to 211 °C; that for `CSC(Oc1cc(Cl)cc(Cl)c1)C(=O)NC(C)(C)C#CCCCC#N` (centres undefined) was 113 to 114 °C. Turning to `c1cncc(-c2nc(COc3ccc(CCCn4ccnc4)cc3)cs2)c1`, the melting point was 67 to 68 °C. The value for `NC(=O)Oc1ccccc1CCCCC#CCSCC#CCCCCc1ccccc1OC(N)=O` was 63 °C. The value for `O=S(=O)(N=Cc1ccc(Cl)cc1)c1ccc(Cl)cc1` was 128 °C.

Turning to `CCOc1cc2c(Cl)ncnc2cc1OC(C)C`, the melting point fell in the range of 104 to 106 °C. The value for `CC(=O)OC1CSC(Oc2cncc(-c3cccnc3F)c2)C(OC(C)=O)C1OC(C)=O` (centres undefined) was 169 to 170 °C; that for `COc1cc2c(cc1OC)C(=O)C(=O)N(CCCN(C)CCCSc1cc(Br)c(N)c(Br)c1)CC2` was 118 to 125 °C; that for `CCOC(=O)c1c(CCl)nc2cc(OC)c(OC)cc2c1-c1ccc(Cl)c(Cl)c1` was 159 to 160 °C. The value for `CCN1CCCC1CNC(=O)c1ccc(O)c(Cl)c1` (centres undefined) was 228 °C; that for `CC(C)n1nc(-c2cc(C(=O)NCc3ccccc3)cnc2-c2ccccc2)ccc1=O` was 205 to 206 °C.
